Like-named read-outs stand apart in the source and are kept apart here.
Tests used:
[1] = Stability test at 60° C., effect of pH value with addition of ascorbic acid (Example 2), HPLC content; format: physicochemical
Procedure: (§1) For the aqueous preparations obtained in (1) to (3) above, tests evaluating stability at 60° C./3 weeks were performed. The calcium levofolinate content remaining in the aqueous solution was measured using high performance liquid chromatography under the following conditions (the same were employed in the following experiments) 2 ml each of the test preparations were weighed, and 10 ml of the internal standard solution described below (the same was employed in the following experiments) were added thereto. Subsequently, water was added to adjust the total volume of the solution to 50 ml, thereby to prepare a test solution. Meanwhile, 62.5 mg of calcium levofolinate were dissolved in water so as to prepare a 25 ml solution. Then, to 10 ml of the resultant solution were added 10 ml of the internal standard solution, and the total volume of the solution was adjusted to 50 ml by adding water, thereby to prepare a standard solution. For 20 μl of the standard solution and the test solution, the content of calcium levofolinate was measured by the liquid chromatography method under the following conditions.
(§2) 1) Measurement Conditions • Detector: Ultraviolet absorptiometer (Measurement wavelength: 254 nm) • Column: A stainless tube having an internal diameter of 4.0 mm and a length of 15 cm was filled with 5 μm of octadecylsilylated silica gel for liquid chromatography. • Column temperature: A constant temperature near 45° C. • Mobile phase: The pH value of a mixed test solution containing 0.008 mol/L of disodium hydrogen phosphate solution/methanol/40% aqueous tetrabutylammonium hydroxide solution (385:110:1.3 (volume ratio)) was adjusted to 7.5 by adding phosphoric acid. • Flow rate: The flow rate was regulated so that the retention time of calcium levofolinate became about 10 minutes. • Internal standard solution: A solution prepared by adding water to 0.04 g of methyl parahydroxybenzoate so that the whole amount of solution is 100 ml.
About 80 ml of water for injection were added to a beaker (volume: 200 ml). Then 0.56 g of sodium chloride, 0.3 g of tromethamine, and 0.5 g of ascorbic acid were added to it with bubbling of nitrogen gas, and the components were dissolved with stirring. Subsequently, to the resultant solution were added 1.375 g of calcium levofolinate (1.1 g, in terms of 5-formyl-(6S)-tetrahydrofolic acid), and the components were dissolved with stirring under heating to 45 to 50° C. Thereafter, the pH value of the solution was adjusted to 5.0 by adding 5% hydrochloric acid solution dropwise. A similar procedure to the above, except using 1% aqueous sodium hydroxide solution in place of 5% hydrochloric acid solution, was performed to produce solutions, each having a regulated pH value of 6.0, 7.0, 8.0, or 9.0. Water for injection was further added to each solution to adjust the total volume of the solution to 100 ml. Subsequently, the bubbling of nitrogen gas was stopped, and each solution was filtered with a filtration filter, thereby to yield a solution for injection. Subsequently, each of five 5 ml-glass ampules the inside space of which had been substituted by nitrogen gas, was filled with 5 ml of the resultant solution for injection, and was sealed by heating.
For each aqueous preparation obtained as above, a stability test at 60° C. was performed by measuring the remaining calcium levofolinate content by the high performance liquid chromatography method.

[2] = format: physicochemical; settings: buffer, 13 mg/mL, pH 6.2
Procedure: as §1, §2
About 1100 ml of water for injection were added to a beaker. Then, 8.04 g of sodium chloride, 3.6 g of tromethamine, and 1.2 g of ascorbic acid were added thereto with bubbling of nitrogen gas, and the components were dissolved with stirring. To the resultant solution were added 15.62 g of calcium levofolinate, which was dissolved with stirring. Thereafter, the pH value of the solution was adjusted to 6.2 by adding 5% hydrochloric acid solution dropwise. Water for injection was further added to the solution to adjust the total volume to 1200 ml. Subsequently, the bubbling of nitrogen gas was stopped, and the solution was filtered with a filtration filter, thereby to yield a solution for injection. A 5 ml-syringe made of polypropylene, the inside space of which had been substituted by nitrogen gas, was filled with 5 ml of the resultant solution for injection, followed by steam sterilization under high pressure at 105° C. for 30 minutes. The thus-sterilized syringe was packaged together with a deoxidant, AGELESS ZP-50 (trade name, Mitsubishi Gas Chemical Company, Inc. Japan) by using a plastic film with high air impermeability.
For an aqueous preparation as obtained above, a stability test (60° C./75% RH, and 40° C./75% RH) was performed by measuring the content of calcium levofolinate remaining after storage for a certain period by the high performance liquid chromatography method.

[3] = Content during storage of the preparation of the present invention; format: physicochemical; settings: storage at 40° C./4 months (equivalent to 25° C./2 years)
From the text: In the preparation of the present invention, the pH value of the aqueous preparation is most desirably 6 to 7, the antioxidant is a combination of ascorbic acid with sodium pyrosulfite, and the concentration of the antioxidant is 0.1 to 0.3 w/v %. However, in the case where the concentration of sodium pyrosulfite is not less than 0.2 w/v %, precipitants form in the aqueous preparation. The preparation of the present invention is desirably included in an inner container, e.g., a syringe in a double package form which comprises an inner container and an outer bag, where a deoxidant (oxygen absorber) is placed between the inner container and the outer bag. The preparation of the present invention can be used as a pharmaceutical. The content of calcium salt of 5-formyl-(6S)-tetrahydrofolic acid (i.e. calcium levofolinate) is 90% or more during storage at 40° C./4 months (this condition is equivalent to 25° C./2 years)

## Nc1nc(=O)c2c([nH]1)NC[C@H](CNc1ccc(C(=O)N[C@@H](CCC(=O)O)C(=O)O)cc1)N2C=O [calcium levofolinate, (6S)-N-[4-[[(2-amino-5-formyl-1,4,5,6,7,8-hexahydro-4-oxo-6-pteridinyl)methyl]amino]benzoyl]-L-glutamic acid]
[1]; pH value 5.0, 60° C., 1 week
  remaining calcium levofolinate content compared with the initial value (100): 91.5
[1]; pH value 5.0, 60° C., 2 weeks
  remaining calcium levofolinate content compared with the initial value (100): 87.5
[1]; pH value 5.0, 60° C., 3 weeks
  remaining calcium levofolinate content compared with the initial value (100): 86.0
[1]; pH value 5.0, Initial value
  calcium levofolinate content, Initial value (100): 100
[1]; pH value 6.0, 60° C., 1 week
  remaining calcium levofolinate content compared with the initial value (100): 95.8
[1]; pH value 6.0, 60° C., 2 weeks
  remaining calcium levofolinate content compared with the initial value (100): 94.1
[1]; pH value 6.0, 60° C., 3 weeks
  remaining calcium levofolinate content compared with the initial value (100): 92.8
[1]; pH value 6.0, Initial value
  calcium levofolinate content, Initial value (100): 100
[1]; pH value 7.0, 60° C., 1 week
  remaining calcium levofolinate content compared with the initial value (100): 96.3
[1]; pH value 7.0, 60° C., 2 weeks
  remaining calcium levofolinate content compared with the initial value (100): 93.4
[1]; pH value 7.0, 60° C., 3 weeks
  remaining calcium levofolinate content compared with the initial value (100): 92.5
[1]; pH value 7.0, Initial value
  calcium levofolinate content, Initial value (100): 100
[1]; pH value 8.0, 60° C., 1 week
  remaining calcium levofolinate content compared with the initial value (100): 94.4
[1]; pH value 8.0, 60° C., 2 weeks
  remaining calcium levofolinate content compared with the initial value (100): 89.2
[1]; pH value 8.0, 60° C., 3 weeks
  remaining calcium levofolinate content compared with the initial value (100): 87.0
[1]; pH value 8.0, Initial value
  calcium levofolinate content, Initial value (100): 100
[1]; pH value 9.0, 60° C., 1 week
  remaining calcium levofolinate content compared with the initial value (100): 95.7
[1]; pH value 9.0, 60° C., 2 weeks
  remaining calcium levofolinate content compared with the initial value (100): 89.7
[1]; pH value 9.0, 60° C., 3 weeks
  remaining calcium levofolinate content compared with the initial value (100): 85.3
[1]; pH value 9.0, Initial value
  calcium levofolinate content, Initial value (100): 100
[2]; 0 months
  remaining ratio (%) of calcium levofolinate: 100%
[2]; 0 weeks
  remaining ratio (%) of calcium levofolinate: 100%
[2]; 1 month
  remaining ratio (%) of calcium levofolinate: 99.8%
[2]; 2 months
  remaining ratio (%) of calcium levofolinate: 98.8%
[2]; 4 months
  remaining ratio (%) of calcium levofolinate: 96.6%
[2]; 6 months
  remaining ratio (%) of calcium levofolinate: 91.8%
[2]; 168 h
  remaining ratio (%) of calcium levofolinate: 96.6%
[2]; 336 h
  remaining ratio (%) of calcium levofolinate: 96.2%
[2]; 504 h
  remaining ratio (%) of calcium levofolinate: 95.3%
[2]; 672 h
  remaining ratio (%) of calcium levofolinate: 94.4%
[3]
  content of calcium levofolinate during storage: ≥ 90%

Source: US20060058312A1, “Stabilized aqueous preparation for injection” (priority 2004, published 2006)
